Columns and labels:
[1] = target: Mitogen-activated protein kinase 3 (Homo sapiens, UniProt P27361); assay: Inhibition of ERK1 (unknown origin) using peptide substrate measured after 45 mins by IMAP assay
[2] = target: T1, hERG (KCNH2) (Homo sapiens, UniProt Q12809); assay: Inhibition of human ERG at 5 mg/ml by binding assay relative to control; parameters: dose or concentration left out as unconfirmed
[3] = target: T1, hERG (KCNH2); assay: Inhibition of human ERG at 1.5 mg/ml by binding assay relative to control; parameters: dose or concentration left out as unconfirmed
[4] = target: Mitogen-activated protein kinase 1 (Homo sapiens, UniProt P28482); assay: Inhibition of ERK2 (unknown origin) using peptide substrate measured after 45 mins by IMAP assay
[5] = AUC in rat at 10 mg/kg; format: ADME, organism-based; conditions: in vivo
[6] = test system: COLO 205; assay: Antiproliferative activity against human COLO205 cells harboring BRAF V600E/D mutant measured after 4 days; format: functional, cell-based; conditions: COLO 205, 96 h
[7] = target: Cytochrome P450 3A4 (Homo sapiens, UniProt P08684); assay: Inhibition of CYP3A4 (unknown origin) preincubated followed by substrate addition; format: ADME
[8] = test system: HT-29; assay: Antiproliferative activity against human HT-29 cells harboring BRAF V600E/D mutant measured after 4 days; format: functional, cell-based; conditions: HT-29, 96 h
[9] = target: T1, hERG (KCNH2); assay: Inhibition of human ERG at 1 uM by IonWork assay relative to control
[10] = target: T1, hERG (KCNH2); assay: Inhibition of human ERG at 10 uM by IonWork assay relative to control
[11] = Plasma clearance in rat; format: ADME, organism-based
[12] = Mean residence time in rat; format: ADME, organism-based; conditions: in vivo
[13] = Half life in rat; format: ADME, organism-based; conditions: in vivo
[14] = Clearance in human hepatocytes assessed per million cells; format: ADME, cell-based, Hepatocyte
[15] = AUC in dog at 10 mg/kg; format: ADME, organism-based, Canis lupus familiaris; conditions: in vivo
[16] = Clearance in dog hepatocytes assessed per million cells; format: ADME, cell-based, Canis lupus familiaris, Hepatocyte
[17] = Drug metabolism in bile duct-cannulated rat urine assessed as glutathione conjugation at 10 mg/kg, iv by LC/ESI-MS/MS analysis; format: ADME, organism-based; conditions: in vivo
[18] = Drug metabolism in bile duct-cannulated rat plasma assessed as oxidation at 10 mg/kg, iv by LC/ESI-MS/MS analysis; format: ADME, organism-based; conditions: in vivo
[19] = Drug metabolism in bile duct-cannulated rat bile assessed as oxidative dealkylation by measuring amide cleavage at 10 mg/kg, iv by LC/ESI-MS/MS analysis; format: ADME, organism-based; conditions: in vivo
[20] = Drug metabolism in bile duct-cannulated rat plasma assessed as conjugation at 10 mg/kg, iv by LC/ESI-MS/MS analysis; format: ADME, organism-based; conditions: in vivo
[21] = Drug metabolism in bile duct-cannulated rat plasma assessed as oxidative dealkylation by measuring amide cleavage at 10 mg/kg, iv by LC/ESI-MS/MS analysis; format: ADME, organism-based; conditions: in vivo
[22] = Drug metabolism in bile duct-cannulated rat plasma assessed as glutathione conjugation at 10 mg/kg, iv by LC/ESI-MS/MS analysis; format: ADME, organism-based; conditions: in vivo
[23] = Drug metabolism in bile duct-cannulated rat bile assessed as oxidation at 10 mg/kg, iv by LC/ESI-MS/MS analysis; format: ADME, organism-based; conditions: in vivo
[24] = Drug metabolism in bile duct-cannulated rat urine assessed as oxidative dealkylation by measuring loss of isopropyl group at 10 mg/kg, iv by LC/ESI-MS/MS analysis; format: ADME, organism-based; conditions: in vivo
[25] = Drug metabolism in bile duct-cannulated rat bile assessed as conjugation at 10 mg/kg, iv by LC/ESI-MS/MS analysis; format: ADME, organism-based; conditions: in vivo
[26] = Drug metabolism in bile duct-cannulated rat plasma assessed as oxidative dealkylation by measuring loss of isopropyl group at 10 mg/kg, iv by LC/ESI-MS/MS analysis; format: ADME, organism-based; conditions: in vivo
[27] = Drug metabolism in bile duct-cannulated rat urine assessed as conjugation at 10 mg/kg, iv by LC/ESI-MS/MS analysis; format: ADME, organism-based; conditions: in vivo
[28] = Drug metabolism in bile duct-cannulated rat urine assessed as oxidative dealkylation by measuring amide cleavage at 10 mg/kg, iv by LC/ESI-MS/MS analysis; format: ADME, organism-based; conditions: in vivo
[29] = Drug metabolism in bile duct-cannulated rat urine assessed as oxidation at 10 mg/kg, iv by LC/ESI-MS/MS analysis; format: ADME, organism-based; conditions: in vivo
[30] = Drug metabolism in bile duct-cannulated rat bile assessed as oxidative dealkylation by measuring loss of isopropyl group at 10 mg/kg, iv by LC/ESI-MS/MS analysis; format: ADME, organism-based; conditions: in vivo

Sequence of Mitogen-activated protein kinase 1 (P28482 whole entry): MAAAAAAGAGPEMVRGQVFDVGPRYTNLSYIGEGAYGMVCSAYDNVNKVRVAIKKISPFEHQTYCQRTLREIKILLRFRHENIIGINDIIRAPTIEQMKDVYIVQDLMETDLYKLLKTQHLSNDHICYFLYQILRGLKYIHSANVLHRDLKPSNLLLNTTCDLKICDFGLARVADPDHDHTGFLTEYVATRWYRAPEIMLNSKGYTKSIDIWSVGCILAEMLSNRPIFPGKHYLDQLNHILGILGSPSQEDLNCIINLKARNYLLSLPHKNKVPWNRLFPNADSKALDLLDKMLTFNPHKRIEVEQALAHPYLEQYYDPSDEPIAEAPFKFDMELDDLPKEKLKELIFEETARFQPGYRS
T1 sequence (Q12809 whole entry): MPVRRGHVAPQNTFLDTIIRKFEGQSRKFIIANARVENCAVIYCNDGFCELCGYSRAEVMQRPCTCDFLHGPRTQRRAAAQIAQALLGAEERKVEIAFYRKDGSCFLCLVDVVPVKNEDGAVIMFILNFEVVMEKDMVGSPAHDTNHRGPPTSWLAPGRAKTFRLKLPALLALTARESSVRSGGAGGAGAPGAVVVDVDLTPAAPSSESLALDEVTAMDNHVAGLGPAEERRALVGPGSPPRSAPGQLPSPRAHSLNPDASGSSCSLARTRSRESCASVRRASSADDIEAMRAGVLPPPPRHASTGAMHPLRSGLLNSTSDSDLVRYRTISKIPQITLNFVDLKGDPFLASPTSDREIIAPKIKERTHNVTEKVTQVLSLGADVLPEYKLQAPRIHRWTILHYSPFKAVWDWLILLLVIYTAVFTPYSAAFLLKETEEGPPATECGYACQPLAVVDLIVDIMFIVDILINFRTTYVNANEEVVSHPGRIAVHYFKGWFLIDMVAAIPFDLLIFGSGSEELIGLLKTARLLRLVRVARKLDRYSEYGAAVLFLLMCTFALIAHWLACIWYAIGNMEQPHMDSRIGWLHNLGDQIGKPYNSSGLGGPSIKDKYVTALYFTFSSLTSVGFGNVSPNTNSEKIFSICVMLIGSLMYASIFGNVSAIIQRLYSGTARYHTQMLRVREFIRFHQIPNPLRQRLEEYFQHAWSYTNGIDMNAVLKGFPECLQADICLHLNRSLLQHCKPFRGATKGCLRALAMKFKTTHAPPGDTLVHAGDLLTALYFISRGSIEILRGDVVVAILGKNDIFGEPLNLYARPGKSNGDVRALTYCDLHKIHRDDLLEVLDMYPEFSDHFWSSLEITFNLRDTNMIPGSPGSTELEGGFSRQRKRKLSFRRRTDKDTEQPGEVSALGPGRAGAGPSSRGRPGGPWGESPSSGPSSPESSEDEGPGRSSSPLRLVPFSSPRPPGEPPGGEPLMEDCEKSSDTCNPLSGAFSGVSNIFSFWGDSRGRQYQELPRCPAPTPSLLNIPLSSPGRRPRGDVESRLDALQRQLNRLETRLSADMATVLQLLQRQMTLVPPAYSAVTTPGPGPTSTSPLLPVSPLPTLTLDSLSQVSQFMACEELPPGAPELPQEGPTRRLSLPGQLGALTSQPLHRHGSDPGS
Sequence of Mitogen-activated protein kinase 3 (P27361 whole entry): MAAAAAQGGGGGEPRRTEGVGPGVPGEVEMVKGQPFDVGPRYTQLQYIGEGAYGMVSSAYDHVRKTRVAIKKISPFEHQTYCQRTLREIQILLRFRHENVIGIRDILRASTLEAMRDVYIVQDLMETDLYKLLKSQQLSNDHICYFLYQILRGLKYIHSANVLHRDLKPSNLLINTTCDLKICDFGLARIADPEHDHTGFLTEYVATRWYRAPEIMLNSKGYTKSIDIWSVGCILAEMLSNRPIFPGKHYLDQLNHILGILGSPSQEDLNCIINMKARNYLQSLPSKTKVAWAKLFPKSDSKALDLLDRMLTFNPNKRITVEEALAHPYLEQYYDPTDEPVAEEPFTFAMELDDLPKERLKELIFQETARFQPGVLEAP
Sequence of Cytochrome P450 3A4 (P08684 whole entry): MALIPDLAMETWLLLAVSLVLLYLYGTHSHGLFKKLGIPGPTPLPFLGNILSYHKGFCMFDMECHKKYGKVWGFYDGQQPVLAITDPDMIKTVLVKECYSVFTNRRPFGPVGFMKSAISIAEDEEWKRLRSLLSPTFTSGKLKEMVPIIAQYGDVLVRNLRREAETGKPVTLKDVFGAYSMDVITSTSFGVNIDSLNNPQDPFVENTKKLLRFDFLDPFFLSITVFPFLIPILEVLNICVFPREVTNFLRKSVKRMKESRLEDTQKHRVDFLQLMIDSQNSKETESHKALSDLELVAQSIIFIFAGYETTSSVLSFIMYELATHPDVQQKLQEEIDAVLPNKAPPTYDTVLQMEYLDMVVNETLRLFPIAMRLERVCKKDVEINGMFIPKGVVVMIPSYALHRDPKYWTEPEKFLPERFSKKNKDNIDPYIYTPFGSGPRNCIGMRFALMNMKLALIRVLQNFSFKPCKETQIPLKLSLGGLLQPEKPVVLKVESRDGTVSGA

| Structure (SMILES) | IC50 [1] | IC50 [4] | IC50 [6] | IC50 [8] | inhibition [2] | inhibition [3] | also measured |
| --- | --- | --- | --- | --- | --- | --- | --- |
| CS[C@@]1(C(=O)Nc2ccc3[nH]nc(-c4ccc(F)cc4)c3c2)CCN(CC(=O)N2CC=C(c3nc(-c4ncccn4)cs3)CC2)C1 | 952 nM | 291 nM |  |  | 19% | 6% |  |
| CS[C@@]1(C(=O)Nc2ccc3[nH]nc(-c4ccc(OC(C)C)nc4)c3c2)CCN(CC(=O)N2CC=C(c3ccc(-c4ncccn4)cc3)CC2)C1 | 93 nM | 13 nM | 57 nM | 79 nM | 37% | 25% |  |
| CS[C@@]1(C(=O)Nc2ccc3[nH]nc(-c4ccc(F)cc4)c3c2)CCN(CC(=O)N2CC=C(c3ncc(-c4ncccn4)s3)CC2)C1 | 207 nM | 36 nM | > 111 nM | 543 nM | 10% | -5% |  |
| CS[C@@]1(C(=O)Nc2ccc3[nH]nc(-c4ccc(F)cc4)c3c2)CCN(CC(=O)N2CC=C(c3ccc(-c4ncccn4)cc3F)CC2)C1 | 135 nM | 25 nM | 83 nM | 209 nM | 32% | 11% |  |
| CS[C@]1(C(=O)Nc2ccc3[nH]nc(-c4ccc(OC(C)C)nc4)c3c2)CCN(CC(=O)N2CC=C(c3ccc(-c4ncn(C)n4)cc3)CC2)C1 |  | 729 nM | > 1000 nM |  |  |  | inhibition at 1 µM [9]: 6%; inhibition at 10 µM [10]: 10% |
| CS[C@@]1(C(=O)Nc2ccc3[nH]nc(-c4ccc(F)cc4)c3c2)CCN(CC(=O)N2CCN(c3ccc(-c4ncccn4)cc3F)CC2)C1 | 663 nM | 114 nM |  |  |  |  |  |
| CS[C@@]1(C(=O)Nc2ccc3[nH]nc(-c4ccnc(OC(C)C)c4)c3c2)CCN(CC(=O)N2CC=C(c3ccc(-c4ncn(C)n4)cc3)CC2)C1 | 74 nM | 27 nM | 41 nM | 99 nM | 10% | 3% |  |
| CC(C)Oc1ccc(-c2n[nH]c3ccc(NC(=O)[C@]4(S(C)(=O)=O)CCN(CC(=O)N5CC=C(c6ccc(-c7ncn(C)n7)cc6)CC5)C4)cc23)cn1 | 228 nM | 29 nM | 86 nM | 243 nM |  |  | inhibition at 1 µM [9]: 4%; inhibition at 10 µM [10]: 5% |
| [3H]c1cc(OC(C)C)nc([3H])c1-c1n[nH]c2ccc(NC(=O)[C@]3(SC)CCN(CC(=O)N4CC=C(c5ccc(-c6ncn(C)n6)cc5)CC4)C3)cc12 |  |  |  |  |  |  | Drug metabolism [17]: Metabolite_Notdetected; Drug metabolism [18]: Metabolite_Detected; Drug metabolism [19]: Metabolite_Detected; Drug metabolism [20]: Metabolite_Detected; Drug metabolism [21]: Metabolite_Detected; Drug metabolism [22]: Metabolite_Notdetected; Drug metabolism [23]: Metabolite_Detected; Drug metabolism [24]: Metabolite_Detected; Drug metabolism [25]: Metabolite_Detected; Drug metabolism [26]: Metabolite_Detected; Drug metabolism [27]: Metabolite_Detected; Drug metabolism [28]: Metabolite_Detected; Drug metabolism [29]: Metabolite_Detected; Drug metabolism [30]: Metabolite_Detected |

Second part, led by results:

| IC50 [1] | IC50 [4] | IC50 [6] | IC50 [8] | Structure (SMILES) | inhibition [2] | inhibition [3] | also measured |
| --- | --- | --- | --- | --- | --- | --- | --- |
| 45 nM | 13 nM | 29 nM | 77 nM | CS[C@@]1(C(=O)Nc2ccc3[nH]nc(-c4ccc5c(c4)OCO5)c3c2)CCN(CC(=O)N2CC=C(c3ccc(-c4ncccn4)cc3)CC2)C1 | 16% | 19% | AUC [5]: 106 µM·h; IC50 [7]: 300 nM |
| 7.9 nM | 1.7 nM | 10 nM | 80 nM | COc1cc(-c2n[nH]c3ccc(NC(=O)[C@]4(SC)CCN(CC(=O)N5CC=C(c6ccc(-c7ncn(C)n7)cc6)CC5)C4)cc23)ccn1 |  |  | inhibition at 1 µM [9]: 0.8%; inhibition at 10 µM [10]: 7.2% |
| 43 nM | 23 nM | 76 nM | 245 nM | CS[C@@]1(C(=O)Nc2ccc3[nH]nc(-c4ccc(F)cc4)c3c2)CCN(CC(=O)N2CCC(c3ccc(-c4ncccn4)cc3)CC2)C1 | 12% | 22% |  |
| 25 nM |  | 47 nM | 87 nM | CS[C@@]1(C(=O)Nc2ccc3[nH]nc(-c4ccc(F)cc4)c3c2)CCN(CC(=O)N2CCN(c3ccc(-c4ncccn4)cc3)CC2)C1 | 47% | 3% |  |
| 17 nM | 5 nM | 22 nM | 49 nM | CCNc1nnc(-c2ccc(C3=CCN(C(=O)CN4CC[C@@](SC)(C(=O)Nc5ccc6[nH]nc(-c7ccc(F)cc7)c6c5)C4)CC3)cc2)o1 | 6% | -3% |  |
| 8 nM |  | 16 nM | 59 nM | O=C(Nc1ccc2[nH]nc(-c3ccncc3)c2c1)[C@@H]1CCN(CC(=O)N2CCN(c3ccc(-c4ncccn4)cc3)CC2)C1 |  |  | clearance [11]: 122 mL/min/kg; MRT [12]: 1.6 h; half-life [13]: 1.5 h |
| 34 nM | 6 nM | 30 nM | 131 nM | CCNc1ncc(-c2ccc(C3=CCN(C(=O)CN4CC[C@@](SC)(C(=O)Nc5ccc6[nH]nc(-c7ccnc(C)c7)c6c5)C4)CC3)cc2)s1 | -3% | -7% |  |
| 19 nM | 5 nM | 34 nM | 60 nM | COc1cc(-c2n[nH]c3ccc(NC(=O)[C@]4(SC)CCN(CC(=O)N5CC=C(c6ccc(-c7ncccn7)cc6)CC5)C4)cc23)ccn1 | 15% | 2% | inhibition at 1 µM [9]: 7%; inhibition at 10 µM [10]: 19% |
| 41 nM |  | 45 nM | 118 nM | CS[C@@]1(C(=O)Nc2ccc3[nH]nc(-c4ccc(F)cc4)c3c2)CCN(CC(=O)N2CC=C(c3ccc(-c4ncccn4)cc3)CC2)C1 |  |  | AUC [5]: 25.9 to 26 µM·h; CLH [14]: 18 µL/min; AUC [15]: 17 µM·h; CLH [16]: 7 µL/min |
